Measured values as given in article PMC5218480 (PLoS ONE, 2017).

System: MV-4-11 cells
Assay: Gene expression microarray analysis (Affymetrix PrimeView) and GSEA
Format: cell-based, human
Design: RFU PODN (11730768_x_at) / Fold change /veh PODN (11730768_x_at) / RFU LINC00158 (11744669_a_at) / Fold change /veh LINC00158 (11744669_a_at) / RFU DUSP10 (11751237_a_at) / Fold change /veh DUSP10 (11751237_a_at) / RFU ID3 (11757404_x_at) / Fold change /veh ID3 (11757404_x_at) / RFU PLEKHG5 (11737974_s_at) / Fold change /veh PLEKHG5 (11737974_s_at) / RFU LRRC4B (11730491_at) / Fold change /veh LRRC4B (11730491_at) / RFU GIMAP4 (11747438_a_at) / Fold change /veh GIMAP4 (11747438_a_at) / RFU KRT8 (11758183_x_at) / Fold change /veh KRT8 (11758183_x_at) / RFU CNN1 (11734310_a_at) / Fold change /veh CNN1 (11734310_a_at) / RFU VPS37D (11726825_at) / Fold change /veh VPS37D (11726825_at) / RFU C10orf10 (11716522_x_at) / Fold change /veh C10orf10 (11716522_x_at) / RFU KIR2DL2 /// KIR2DL4 /// KIR2DL5A /// KIR2DL5B /// KIR2DS1 /// KIR2DS2 /// KIR2DS3 /// KIR2DS4 /// KIR3DL3 /// KIR3DL3 /// KIR3DS1 (11738374_at) / Fold change /veh KIR2DL2 /// KIR2DL4 /// KIR2DL5A /// KIR2DL5B /// KIR2DS1 /// KIR2DS2 /// KIR2DS3 /// KIR2DS4 /// KIR3DL3 /// KIR3DL3 /// KIR3DS1 (11738374_at) / RFU C1QL1 (11718748_at) / Fold change /veh C1QL1 (11718748_at) / RFU TMPRSS4 (11747572_a_at) / Fold change /veh TMPRSS4 (11747572_a_at) / RFU HAMP (11756126_x_at) / Fold change /veh HAMP (11756126_x_at) / RFU RNFT2 (11725882_a_at) / Fold change /veh RNFT2 (11725882_a_at) / RFU NR4A2 (11747474_a_at) / Fold change /veh NR4A2 (11747474_a_at) / RFU ABCC12 (11746883_a_at) / Fold change /veh ABCC12 (11746883_a_at) / RFU TMEM136 (11760407_x_at) / Fold change /veh TMEM136 (11760407_x_at) / RFU CLDN22 /// WWC2 (11732394_at) / Fold change /veh CLDN22 /// WWC2 (11732394_at) / RFU HLA-DPB1 (11760878_x_at) / Fold change /veh HLA-DPB1 (11760878_x_at) / RFU SPINT1 (11716480_a_at) / Fold change /veh SPINT1 (11716480_a_at) / RFU GAP43 (11754022_s_at) / Fold change /veh GAP43 (11754022_s_at) / RFU A4GNT (11735810_at) / Fold change /veh A4GNT (11735810_at) / RFU PRB3 (11715151_x_at) / Fold change /veh PRB3 (11715151_x_at) / RFU TUBB4B (11761932_at) / Fold change /veh TUBB4B (11761932_at) / RFU CAPN14 (11732068_a_at) / Fold change /veh CAPN14 (11732068_a_at) / RFU TMCC2 (11721928_a_at) / Fold change /veh TMCC2 (11721928_a_at) / RFU IRGQ (11745062_a_at) / Fold change /veh IRGQ (11745062_a_at) / RFU FAM174B (11720279_a_at) / Fold change /veh FAM174B (11720279_a_at) / RFU TMPRSS4 (11748680_a_at) / Fold change /veh TMPRSS4 (11748680_a_at) / RFU FAM212B (11763350_a_at) / Fold change /veh FAM212B (11763350_a_at) / RFU PLEKHG5 (11743358_a_at) / Fold change /veh PLEKHG5 (11743358_a_at) / RFU ZSCAN30 (11745921_a_at) / Fold change /veh ZSCAN30 (11745921_a_at) / RFU CMKLR1 (11741424_a_at) / Fold change /veh CMKLR1 (11741424_a_at) / RFU LOC101060620 /// MAPK8IP1 (11723275_at) / Fold change /veh LOC101060620 /// MAPK8IP1 (11723275_at) / RFU SPTSSB (11747773_x_at) / Fold change /veh SPTSSB (11747773_x_at) / RFU PRSS12 (11739890_at) / Fold change /veh PRSS12 (11739890_at) / RFU BIN1 (11741810_x_at) / Fold change /veh BIN1 (11741810_x_at) / RFU WNT11 (11732464_a_at) / Fold change /veh WNT11 (11732464_a_at) / RFU C10orf10 (11716521_a_at) / Fold change /veh C10orf10 (11716521_a_at) / RFU C5orf56 (11738089_at) / Fold change /veh C5orf56 (11738089_at) / RFU CYB561 (11721691_x_at) / Fold change /veh CYB561 (11721691_x_at) / RFU ANKRD19P (11752326_a_at) / Fold change /veh ANKRD19P (11752326_a_at) / RFU OR2T12 /// OR2T33 /// OR2T8 (11738714_s_at) / Fold change /veh OR2T12 /// OR2T33 /// OR2T8 (11738714_s_at) / RFU VCAN (11748164_a_at) / Fold change /veh VCAN (11748164_a_at) / RFU JSRP1 (11732532_at) / Fold change /veh JSRP1 (11732532_at) / RFU KRTAP10-11 (11738290_x_at) / Fold change /veh KRTAP10-11 (11738290_x_at) / RFU MYO3A (11730013_a_at) / Fold change /veh MYO3A (11730013_a_at) / RFU EBF3 (11725865_a_at) / Fold change /veh EBF3 (11725865_a_at) / RFU CAMK2N1 (11719241_x_at) / Fold change /veh CAMK2N1 (11719241_x_at) / RFU C5orf56 (11738088_a_at) / Fold change /veh C5orf56 (11738088_a_at) / RFU OLFML3 (11715873_a_at) / Fold change /veh OLFML3 (11715873_a_at) / RFU LOC100653217 /// NTM (11731650_a_at) / Fold change /veh LOC100653217 /// NTM (11731650_a_at) / RFU MAPK11 (11762145_a_at) / Fold change /veh MAPK11 (11762145_a_at) / RFU FIZ1 (11724087_x_at) / Fold change /veh FIZ1 (11724087_x_at) / RFU OASL (11726364_x_at) / Fold change /veh OASL (11726364_x_at) / RFU SOX15 (11748057_x_at) / Fold change /veh SOX15 (11748057_x_at) / RFU CD79A (11719716_a_at) / Fold change /veh CD79A (11719716_a_at) / RFU HIST1H1D (11736915_at) / Fold change /veh HIST1H1D (11736915_at) / RFU CASKIN2 (11723855_a_at) / Fold change /veh CASKIN2 (11723855_a_at) / RFU LOC730098 (11760151_x_at) / Fold change /veh LOC730098 (11760151_x_at) / RFU OR4N2 (11742367_at) / Fold change /veh OR4N2 (11742367_at) / RFU PRRT2 (11749266_a_at) / Fold change /veh PRRT2 (11749266_a_at) / RFU SNX32 (11753110_a_at) / Fold change /veh SNX32 (11753110_a_at) / RFU CDHR5 (11726645_a_at) / Fold change /veh CDHR5 (11726645_a_at) / RFU RCAN1 (11760418_a_at) / Fold change /veh RCAN1 (11760418_a_at) / RFU FAM167A (11723789_a_at) / Fold change /veh FAM167A (11723789_a_at) / RFU FAM26E (11764081_at) / Fold change /veh FAM26E (11764081_at) / RFU ISYNA1 (11749810_s_at) / Fold change /veh ISYNA1 (11749810_s_at) / RFU ACY1 (11761880_at) / Fold change /veh ACY1 (11761880_at) / RFU 11764098_at / Fold change /veh 11764098_at / RFU SAMD14 (11745864_x_at) / Fold change /veh SAMD14 (11745864_x_at) / RFU NPB (11741838_a_at) / Fold change /veh NPB (11741838_a_at) / RFU TMPRSS6 (11731388_a_at) / Fold change /veh TMPRSS6 (11731388_a_at) / RFU KRTAP10-2 (11738614_at) / Fold change /veh KRTAP10-2 (11738614_at) / RFU ARHGAP8 /// PRR5-ARHGAP8 (11727945_x_at) / Fold change /veh ARHGAP8 /// PRR5-ARHGAP8 (11727945_x_at) / RFU KRTAP5-7 /// NADSYN1 (11734609_at) / Fold change /veh KRTAP5-7 /// NADSYN1 (11734609_at) / RFU RASL12 (11751679_a_at) / Fold change /veh RASL12 (11751679_a_at) / RFU CDKN2B (11736163_a_at) / Fold change /veh CDKN2B (11736163_a_at) / RFU PRF1 (11729649_at) / Fold change /veh PRF1 (11729649_at) / RFU, ZNF638 /// ZNF638-IT1 / Fold change vs veh, ZNF638 /// ZNF638-IT1 / RFU, PANK3 / Fold change vs veh, PANK3 / RFU, SH3YL1 / Fold change vs veh, SH3YL1 / RFU, ZEB2 / Fold change vs veh, ZEB2 / RFU, NRIP1 / Fold change vs veh, NRIP1 / RFU, PTTG1IP / Fold change vs veh, PTTG1IP / RFU, CAPN2 / Fold change vs veh, CAPN2 / RFU, MED14 / Fold change vs veh, MED14 / RFU, SNORA58 / Fold change vs veh, SNORA58 / RFU, C1orf63 / Fold change vs veh, C1orf63 / RFU, LRRFIP1 / Fold change vs veh, LRRFIP1 / RFU, NDUFAF7 / Fold change vs veh, NDUFAF7 / RFU, SLC12A2 / Fold change vs veh, SLC12A2 / RFU, IBTK / Fold change vs veh, IBTK / RFU, ESF1 / Fold change vs veh, ESF1 / Fold change vs veh, TMEM50B / RFU, TAOK1 / Fold change vs veh, TAOK1 / RFU, ACBD3 / Fold change vs veh, ACBD3 / RFU, TMA16 / Fold change vs veh, TMA16 / RFU, RWDD3 / Fold change vs veh, RWDD3 / RFU, BCAT1 / Fold change vs veh, BCAT1 / RFU, EDEM3 / Fold change vs veh, EDEM3 / RFU, TMEM33 / Fold change vs veh, TMEM33 / RFU, WDR75 / Fold change vs veh, WDR75 / RFU, AHCTF1 / Fold change vs veh, AHCTF1 / RFU, TFRC / Fold change vs veh, TFRC / RFU, ZDHHC17 / Fold change vs veh, ZDHHC17 / RFU, NOM1 / Fold change vs veh, NOM1 / RFU, ARL8B / Fold change vs veh, ARL8B / RFU, ZBTB11 / Fold change vs veh, ZBTB11 / RFU, TAMM41 / Fold change vs veh, TAMM41 / RFU, KIAA1704 /// LOC100996395 / Fold change vs veh, KIAA1704 /// LOC100996395 / RFU, ING1 / Fold change vs veh, ING1 / RFU, TRMT61B / Fold change vs veh, TRMT61B / RFU, FUBP3 / Fold change vs veh, FUBP3 / RFU, TP53 / Fold change vs veh, TP53 / RFU, TNKS2 / Fold change vs veh, TNKS2 / RFU, ZFP14 / Fold change vs veh, ZFP14 / RFU, ACTR2 / Fold change vs veh, ACTR2 / RFU, PPP3R1 / Fold change vs veh, PPP3R1 / RFU, PIK3R1 / Fold change vs veh, PIK3R1 / RFU, HNRNPA1 / Fold change vs veh, HNRNPA1 / RFU, RNF170 / Fold change vs veh, RNF170 / RFU, ZNF28 / Fold change vs veh, ZNF28 / RFU, RNGTT / Fold change vs veh, RNGTT / RFU, OGT / Fold change vs veh, OGT / RFU, BRD1 / Fold change vs veh, BRD1 / RFU, MARS / Fold change vs veh, MARS / RFU, ZNF655 / Fold change vs veh, ZNF655 / RFU, FAHD1 / Fold change vs veh, FAHD1 / RFU, BDP1 / Fold change vs veh, BDP1 / RFU, LRRCC1 / Fold change vs veh, LRRCC1 / RFU, ARID1A / Fold change vs veh, ARID1A / RFU, ZNF146 / Fold change vs veh, ZNF146 / RFU, ZNF330 / Fold change vs veh, ZNF330 / RFU, GPN3 / Fold change vs veh, GPN3 / RFU, C9orf123 / Fold change vs veh, C9orf123 / RFU, N4BP2L2 / Fold change vs veh, N4BP2L2 / RFU, ARFIP1 / Fold change vs veh, ARFIP1 / RFU, FAM179B / Fold change vs veh, FAM179B / RFU, BCL10 / Fold change vs veh, BCL10 / RFU, UHRF1BP1L / Fold change vs veh, UHRF1BP1L / RFU, BET1 / Fold change vs veh, BET1 / RFU, CNOT2 / Fold change vs veh, CNOT2 / RFU, ZNF268 / Fold change vs veh, ZNF268 / Fold change vs veh, ZNF507 / RFU, DGCR2 / Fold change vs veh, DGCR2 / RFU, WDSUB1 / Fold change vs veh, WDSUB1 / Fold change vs veh, HSP90B1 /// MIR3652 / RFU, ADSS / Fold change vs veh, ADSS / RFU, GK / Fold change vs veh, GK / RFU, ZNF148 / Fold change vs veh, ZNF148 / RFU, TAF9 / Fold change vs veh, TAF9 / RFU, SLC1A5 / Fold change vs veh, SLC1A5 / RFU, SLMO2 / Fold change vs veh, SLMO2 / RFU, ABCC4 / Fold change vs veh, ABCC4 / RFU, LOC101060439 /// RAP1B / Fold change vs veh, LOC101060439 /// RAP1B / RFU, RFX7 / Fold change vs veh, RFX7 / RFU, GTPBP10 / Fold change vs veh, GTPBP10 / RFU, CNEP1R1 / Fold change vs veh, CNEP1R1 / RFU, BIVM-ERCC5 /// ERCC5 / Fold change vs veh, BIVM-ERCC5 /// ERCC5 / RFU, ILF3 / Fold change vs veh, ILF3 / RFU 11762660_at / Fold change /veh 11762660_at / RFU VCAN (11757783_s_at) / Fold change /veh VCAN (11757783_s_at) / RFU DDX43 (11728927_at) / Fold change /veh DDX43 (11728927_at) / RFU KRT8 (11758188_x_at) / Fold change /veh KRT8 (11758188_x_at) / RFU NKD1 (11759106_at) / Fold change /veh NKD1 (11759106_at) / RFU SRD5A1 (11742802_a_at) / Fold change /veh SRD5A1 (11742802_a_at) / RFU TPSAB1 /// TPSB2 (11721975_s_at) / Fold change /veh TPSAB1 /// TPSB2 (11721975_s_at) / RFU GSTM3 (11746129_a_at) / Fold change /veh GSTM3 (11746129_a_at) / RFU IL23R (11737362_x_at) / Fold change /veh IL23R (11737362_x_at) / RFU TMEM51 (11727254_a_at) / Fold change /veh TMEM51 (11727254_a_at) / RFU PIWIL2 (11732686_x_at) / Fold change /veh PIWIL2 (11732686_x_at) / RFU ORM1 (11744905_x_at) / Fold change /veh ORM1 (11744905_x_at) / RFU CCDC152 (11743942_at) / Fold change /veh CCDC152 (11743942_at) / RFU ECM1 (11717891_a_at) / Fold change /veh ECM1 (11717891_a_at) / RFU IL23R (11748794_a_at) / Fold change /veh IL23R (11748794_a_at) / RFU TNFAIP8L3 (11732012_x_at) / Fold change /veh TNFAIP8L3 (11732012_x_at) / RFU MBOAT4 (11741988_at) / Fold change /veh MBOAT4 (11741988_at) / RFU 11764193_at / Fold change /veh 11764193_at / RFU TMEM53 (11763286_at) / Fold change /veh TMEM53 (11763286_at) / RFU MAGEB2 (11727129_at) / Fold change /veh MAGEB2 (11727129_at) / RFU TMEM200A (11744735_a_at) / Fold change /veh TMEM200A (11744735_a_at) / RFU CCDC152 (11751479_a_at) / Fold change /veh CCDC152 (11751479_a_at) / RFU FAM211A (11726209_a_at) / Fold change /veh FAM211A (11726209_a_at) / RFU RGS16 (11746705_a_at) / Fold change /veh RGS16 (11746705_a_at) / RFU VCAN (11755009_s_at) / Fold change /veh VCAN (11755009_s_at) / RFU RHOB (11743442_s_at) / Fold change /veh RHOB (11743442_s_at) / RFU RGS16 (11720943_a_at) / Fold change /veh RGS16 (11720943_a_at) / RFU RGS16 (11720944_at) / Fold change /veh RGS16 (11720944_at) / RFU, VPS4B / Fold change vs veh, VPS4B / RFU, CREB1 / Fold change vs veh, CREB1 / RFU, DNAJC13 / Fold change vs veh, DNAJC13 / RFU, GNAQ / Fold change vs veh, GNAQ / RFU, CDK5R1 / Fold change vs veh, CDK5R1 / RFU, ZRANB3 / Fold change vs veh, ZRANB3 / RFU, CUL4A / Fold change vs veh, CUL4A / RFU, CCNY / Fold change vs veh, CCNY / RFU, UFL1 / Fold change vs veh, UFL1 / RFU, COG3 / Fold change vs veh, COG3 / RFU, DIAPH2 / Fold change vs veh, DIAPH2 / RFU, SKA2 / Fold change vs veh, SKA2 / RFU, AFF3 / Fold change vs veh, AFF3 / RFU, LMF1 / Fold change vs veh, LMF1 / RFU, IPO11 / Fold change vs veh, IPO11 / RFU, DFFB / Fold change vs veh, DFFB / RFU, FOXP1 / Fold change vs veh, FOXP1 / RFU, CARD8 / Fold change vs veh, CARD8 / RFU, STRN3 / Fold change vs veh, STRN3 / RFU, ADK / Fold change vs veh, ADK / RFU, RASSF2 / Fold change vs veh, RASSF2 / RFU, WIPF1 / Fold change vs veh, WIPF1 / RFU, LARP1B / Fold change vs veh, LARP1B / RFU, RASA1 / Fold change vs veh, RASA1 / RFU, RB1 / Fold change vs veh, RB1 / RFU, PPFIA1 / Fold change vs veh, PPFIA1 / RFU, MAT2A / Fold change vs veh, MAT2A / RFU, CCT5 / Fold change vs veh, CCT5 / RFU, WDR92 / Fold change vs veh, WDR92 / RFU, CUX1 / Fold change vs veh, CUX1 / RFU, TTC7A / Fold change vs veh, TTC7A / RFU, TMEM135 / Fold change vs veh, TMEM135 / RFU, DEPTOR / Fold change vs veh, DEPTOR / RFU, CPM / Fold change vs veh, CPM / RFU, DNAJB6 / Fold change vs veh, DNAJB6 / RFU, CACNA2D3 / Fold change vs veh, CACNA2D3 / RFU, DTX4 / Fold change vs veh, DTX4 / RFU, TFCP2 / Fold change vs veh, TFCP2 / RFU, GMCL1 /// GMCL1P1 / Fold change vs veh, GMCL1 /// GMCL1P1 / RFU, AEBP2 / Fold change vs veh, AEBP2 / RFU, SNHG1 /// SNORD22 /// SNORD25 /// SNORD26 /// SNORD27 /// SNORD28 /// SNORD29 /// SNORD31 / Fold change vs veh, SNHG1 /// SNORD22 /// SNORD25 /// SNORD26 /// SNORD27 /// SNORD28 /// SNORD29 /// SNORD31 / Fold change (Aza/veh), C12orf56 (ProbeSet 11735607_a_at) / Fold change (ACY-1035/veh), C12orf56 (ProbeSet 11735607_a_at) / Fold change (Aza/veh), FGFR1OP (ProbeSet 11751329_s_at) / Fold change (ACY-1035/veh), FGFR1OP (ProbeSet 11751329_s_at) / Fold change (Aza/veh), VPS36 (ProbeSet 11739960_a_at) / Fold change (ACY-1035/veh), VPS36 (ProbeSet 11739960_a_at) / RFU SYPL1 (11715823_x_at) / Fold change /veh SYPL1 (11715823_x_at) / RFU IGFBP7 (11715501_s_at) / Fold change /veh IGFBP7 (11715501_s_at) / RFU REEP3 (11722064_at) / Fold change /veh REEP3 (11722064_at) / RFU IGLL1 (11728026_x_at) / Fold change /veh IGLL1 (11728026_x_at): dose or concentration left out as unconfirmed
Settings: MV-4-11 cells, 48 hours

With Nc1ncn([C@@H]2O[C@H](CO)[C@@H](O)[C@H]2O)c(=O)n1 [azacitidine] the “RFU PRSS12 (11739890_at)” value was 6.78 RFU.
